Measurements reported in PubChem BioAssay (NCI).
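Abbreviation: GI50, concentration required for 50% inhibition of growth. TGI is the concentration that stops growth completely.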

Assays:
Assay in all cases: inhibition of tumour cell growth, NCI panel, 384-well format
HOP-92 NSCLC = test system: HOP-92 NSCLC
UO-31 renal = test system: UO-31 renal
U251 glioblastoma = test system: U251 glioblastoma
IGROV1 ovarian = test system: IGROV1 ovarian
HCT-116 colon = test system: HCT-116 colon
SW-620 colon = test system: SW-620 colon
NCI-H522 lung = test system: NCI-H522 lung
RPMI-8226 leukemia = test system: RPMI-8226 leukemia
MDA-MB-435 melanoma = test system: MDA-MB-435 melanoma
NCI-H226 lung = test system: NCI-H226 lung
RXF 393 renal = test system: RXF 393 renal
NCI/ADR-RES ovarian = test system: NCI/ADR-RES ovarian
CCRF-CEM leukemia = test system: CCRF-CEM leukemia
SN12C renal = test system: SN12C renal
MDA-MB-468 breast = test system: MDA-MB-468 breast
COLO 205 colon = test system: COLO 205 colon
HL-60(TB) leukemia = test system: HL-60(TB) leukemia
SF-539 CNS = test system: SF-539 CNS
PC-3 prostate = test system: PC-3 prostate
MCF7 breast = test system: MCF7 breast
OVCAR-8 ovarian = test system: OVCAR-8 ovarian
OVCAR-3 ovarian = test system: OVCAR-3 ovarian
ACHN renal = test system: ACHN renal
HS 578T breast = test system: HS 578T breast
HT29 colon = test system: HT29 colon
786-0 renal = test system: 786-0 renal
A549 NSCLC = test system: A549 NSCLC
SK-OV-3 ovarian = test system: SK-OV-3 ovarian
DU-145 prostate = test system: DU-145 prostate
CAKI-1 renal = test system: CAKI-1 renal
A498 renal = test system: A498 renal
LOX IMVI melanoma = test system: LOX IMVI melanoma
EKVX NSCLC = test system: EKVX NSCLC
OVCAR-4 ovarian = test system: OVCAR-4 ovarian
SR leukemia = test system: SR leukemia
HCC-2998 colon = test system: HCC-2998 colon
HCT-15 colon = test system: HCT-15 colon
BT-549 breast = test system: BT-549 breast
UACC-62 melanoma = test system: UACC-62 melanoma
MDA-MB-231 breast = test system: MDA-MB-231 breast
HOP-62 NSCLC = test system: HOP-62 NSCLC
M14 melanoma = test system: M14 melanoma
KM12 colon = test system: KM12 colon
SK-MEL-28 melanoma = test system: SK-MEL-28 melanoma
SNB-19 CNS = test system: SNB-19 CNS
SNB-75 CNS = test system: SNB-75 CNS
K-562 leukemia = test system: K-562 leukemia
UACC-257 melanoma = test system: UACC-257 melanoma
NCI-H322M lung = test system: NCI-H322M lung
SF-268 CNS = test system: SF-268 CNS
MOLT-4 leukemia = test system: MOLT-4 leukemia
SF-295 CNS = test system: SF-295 CNS
NCI-H460 NSCLC = test system: NCI-H460 NSCLC
T-47D breast = test system: T-47D breast
NCI-H23 lung = test system: NCI-H23 lung
TK-10 renal = test system: TK-10 renal
SK-MEL-5 melanoma = test system: SK-MEL-5 melanoma
MALME-3M melanoma = test system: MALME-3M melanoma

N#CC1(c2ccc(NC(=O)c3cccnc3NCc3ccncc3)cc2)CCCC1
GI50 (HOP-92 NSCLC): 10.3 µM
TGI (HOP-92 NSCLC): 23.8 µM
GI50 (UO-31 renal): 12.6 µM
TGI (UO-31 renal): 25.2 µM
GI50 (U251 glioblastoma): 12.6 µM
TGI (U251 glioblastoma): 25.1 µM
GI50 (IGROV1 ovarian): 13.7 µM
TGI (IGROV1 ovarian): 31 µM
GI50 (HCT-116 colon): 10.6 µM
TGI (HCT-116 colon): 22.4 µM
GI50 (SW-620 colon): 8.06 µM
TGI (SW-620 colon): 20 µM
GI50 (NCI-H522 lung): 10.5 µM
TGI (NCI-H522 lung): 22.5 µM
GI50 (RPMI-8226 leukemia): 1.95 µM
TGI (RPMI-8226 leukemia): 5.66 µM
GI50 (MDA-MB-435 melanoma): 14.5 µM
TGI (MDA-MB-435 melanoma): 28.2 µM
GI50 (NCI-H226 lung): 11 µM
TGI (NCI-H226 lung): 27.5 µM
GI50 (RXF 393 renal): 1.84 µM
TGI (RXF 393 renal): 5.83 µM
GI50 (NCI/ADR-RES ovarian): 11 µM
TGI (NCI/ADR-RES ovarian): 27.2 µM
GI50 (CCRF-CEM leukemia): 4.22 µM
TGI (CCRF-CEM leukemia): 17.6 µM
GI50 (SN12C renal): 7.37 µM
TGI (SN12C renal): 25.3 µM
GI50 (MDA-MB-468 breast): 3.62 µM
TGI (MDA-MB-468 breast): 14.3 µM
GI50 (COLO 205 colon): 13.4 µM
TGI (COLO 205 colon): 37.6 µM
GI50 (HL-60(TB) leukemia): 2.05 µM
TGI (HL-60(TB) leukemia): 3.76 µM
GI50 (SF-539 CNS): 4.43 µM
TGI (SF-539 CNS): 19.2 µM
GI50 (PC-3 prostate): 9.47 µM
TGI (PC-3 prostate): 23.1 µM
GI50 (MCF7 breast): 5.9 µM
TGI (MCF7 breast): 21.2 µM
GI50 (OVCAR-8 ovarian): 11.1 µM
TGI (OVCAR-8 ovarian): 24.7 µM
GI50 (OVCAR-3 ovarian): 9.01 µM
TGI (OVCAR-3 ovarian): 21.7 µM
GI50 (ACHN renal): 13.7 µM
TGI (ACHN renal): 36.2 µM
GI50 (HS 578T breast): 3.38 µM
TGI (HS 578T breast): 15.2 µM
GI50 (HT29 colon): 3.99 µM
TGI (HT29 colon): 12.6 µM
GI50 ([…]-0 renal): 4.39 µM
TGI (786-0 renal): 15.5 µM
GI50 (A549 NSCLC): 12.1 µM
TGI (A549 NSCLC): 25.5 µM
GI50 (SK-OV-3 ovarian): 12.1 µM
TGI (SK-OV-3 ovarian): 24.6 µM
GI50 (DU-145 prostate): 12.3 µM
TGI (DU-145 prostate): 33.5 µM
GI50 (CAKI-1 renal): 11.7 µM
TGI (CAKI-1 renal): 25 µM
GI50 (A498 renal): 7.95 µM
TGI (A498 renal): 20.5 µM
GI50 (LOX IMVI melanoma): 13.3 µM
TGI (LOX IMVI melanoma): 26.1 µM
GI50 (EKVX NSCLC): 6.32 µM
TGI (EKVX NSCLC): 25.8 µM
GI50 (OVCAR-4 ovarian): 11.7 µM
TGI (OVCAR-4 ovarian): 30.1 µM
GI50 (SR leukemia): 2.45 µM
TGI (SR leukemia): 4.9 µM
GI50 (HCC-2998 colon): 5.87 µM
TGI (HCC-2998 colon): 17.3 µM
GI50 (HCT-15 colon): 3.17 µM
TGI (HCT-15 colon): 12.5 µM
GI50 (BT-549 breast): 8.33 µM
TGI (BT-549 breast): 22.9 µM
GI50 (UACC-62 melanoma): 10.9 µM
TGI (UACC-62 melanoma): 22.9 µM
GI50 (MDA-MB-231 breast): 4.96 µM
TGI (MDA-MB-231 breast): 20.3 µM
GI50 (HOP-62 NSCLC): 11.2 µM
TGI (HOP-62 NSCLC): 23.7 µM
GI50 (M14 melanoma): 12.6 µM
TGI (M14 melanoma): 30 µM
GI50 (KM12 colon): 13 µM
TGI (KM12 colon): 26.5 µM
GI50 (SK-MEL-28 melanoma): 13.8 µM
TGI (SK-MEL-28 melanoma): 40.6 µM
GI50 (SNB-19 CNS): 14.3 µM
TGI (SNB-19 CNS): 28.9 µM
GI50 (SNB-75 CNS): 7.08 µM
TGI (SNB-75 CNS): 20.7 µM
GI50 (K-562 leukemia): 2.88 µM
TGI (K-562 leukemia): 12.2 µM
GI50 (UACC-257 melanoma): 10.4 µM
TGI (UACC-257 melanoma): 25.1 µM
GI50 (NCI-H322M lung): 12.2 µM
TGI (NCI-H322M lung): 31.2 µM
GI50 (SF-268 CNS): 12.9 µM
TGI (SF-268 CNS): 27.2 µM
GI50 (MOLT-4 leukemia): 4.64 µM
TGI (MOLT-4 leukemia): 17.3 µM
GI50 (SF-295 CNS): 9.76 µM
TGI (SF-295 CNS): 21.5 µM
GI50 (NCI-H460 NSCLC): 7.74 µM
TGI (NCI-H460 NSCLC): 20.3 µM
GI50 (T-47D breast): 2.75 µM
TGI (T-47D breast): 14.5 µM
GI50 (NCI-H23 lung): 9.55 µM
TGI (NCI-H23 lung): 23.1 µM
GI50 (TK-10 renal): 11.2 µM
TGI (TK-10 renal): 28.8 µM
GI50 (SK-MEL-5 melanoma): 2.82 µM
TGI (SK-MEL-5 melanoma): 13 µM
GI50 (MALME-3M melanoma): 3.09 µM
TGI (MALME-3M melanoma): 13.2 µM
